Results on 3 substances are retold here after patent US5395922A, “Yeast processing system” (Novo Nordisk A/S, priority 1989, dated 1995).

Holding throughout (type): biochemical
The target in one test is plasmin (Homo sapiens, UniProt P00747). Description: Plasmin inhibition titration curves (S 2251 substrate, rate of nitroaniline production). The settings on record: 30 minutes incubation of enzyme with inhibitor, 0.6 mM S 2251; FIG. 5B. Here is the method: (§1) The trypsin and plasmin inhibition by Glu-Leu-aprotinin (1-58) in terms of titration curves determined as described below were indistinguishable from that of bovine pancreatic aprotinin (Aprotinin Novo). After incubation of the enzyme with aprotinin or its analogues for 30 minutes, 0.6 mM S 2251 (KabiVitrum) was added and the activity measured as the rate of nitroaniline production. The activity as a function of aprotinin concentration is plotted in FIG. 5A and 5B. Complete inhibition of both enzymes with all three inhibitors was observed.
plasmin, sequence (P00747 581-810 limits assumed, species assumed): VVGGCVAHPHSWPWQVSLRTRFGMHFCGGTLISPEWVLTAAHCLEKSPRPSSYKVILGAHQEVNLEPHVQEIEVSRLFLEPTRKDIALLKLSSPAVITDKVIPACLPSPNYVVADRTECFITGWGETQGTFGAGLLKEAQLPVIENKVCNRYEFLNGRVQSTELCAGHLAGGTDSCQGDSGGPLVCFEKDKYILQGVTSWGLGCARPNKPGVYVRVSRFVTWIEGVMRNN
plasmin, sequence (P00747 97-580 partner limits assumed, species assumed): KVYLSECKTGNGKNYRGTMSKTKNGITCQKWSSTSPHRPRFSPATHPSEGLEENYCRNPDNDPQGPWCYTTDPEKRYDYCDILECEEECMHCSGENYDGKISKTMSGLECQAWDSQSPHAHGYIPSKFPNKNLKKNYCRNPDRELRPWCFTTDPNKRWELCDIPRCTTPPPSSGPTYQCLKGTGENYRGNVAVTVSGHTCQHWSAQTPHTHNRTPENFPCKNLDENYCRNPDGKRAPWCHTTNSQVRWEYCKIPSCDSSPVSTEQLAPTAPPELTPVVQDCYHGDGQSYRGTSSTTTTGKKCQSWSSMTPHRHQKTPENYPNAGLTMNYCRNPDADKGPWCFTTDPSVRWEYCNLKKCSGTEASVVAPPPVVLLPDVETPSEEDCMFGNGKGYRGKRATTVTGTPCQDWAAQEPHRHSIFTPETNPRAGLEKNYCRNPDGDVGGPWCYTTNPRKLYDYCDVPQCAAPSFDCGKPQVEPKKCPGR

The subject of test [1] is trypsin. Description: Trypsin inhibition titration curves (S 2251 substrate, rate of nitroaniline production). The settings on record: 30 minutes incubation of enzyme with inhibitor, 0.6 mM S 2251; FIG. 5A. Here is the method:
as §1

Test [2] deals with trypsin. Description: Trypsin inhibitor specific activity, spectrophotometric assay (method of Kassel). The settings on record: comparison with native aprotinin. As for the experimental part:
Yeast strain KFN-837 was grown on YPD medium (1% yeast extract, 2% peptone (from Difco Laboratories), and 6% glucose). A 200 ml culture of the strain was shaken at 250 rpm at 30° C. for 3 days to an O.D. at 600 nm of 20 (Dry yeast biomass 18.8 g/liter). After centrifugation the supernatant was analyzed by FPLC ion exchange chromatography. The yeast supernatant was filtered through a 0.22 μm Millex GV filter unit and 1 ml was applied on a MonoS cation exchange column (0.5×5 cm) equilibrated with 20 mM Bicine, pH=8.7. After wash with equilibration buffer the column was eluted with a linear NaCl gradient (0-1M) in equilibration buffer. Trypsin inhibitor activity was quantified in the eluted fractions by spectrophotometric assay (Kassel, B., Methods Enzymol. 19 (1970), 844-852) and furthermore by integration of absorption at 280 nm from [formula] The yield was […] of Glu-Leu-aprotinin(1-58).
The trypsin and plasmin inhibition by Glu-Leu-aprotinin (1-58) in terms of titration curves determined as described below were indistinguishable from that of bovine pancreatic aprotinin (Aprotinin Novo). After incubation of the enzyme with aprotinin or its analogues for 30 minutes, 0.6 mM S 2251 (KabiVitrum) was added and the activity measured as the rate of nitroaniline production. The activity as a function of aprotinin concentration is plotted in FIG. 5A and 5B. […]

As for Glu-Leu-Asp-Leu-aprotinin(1-58), the “plasmin inhibition in terms of titration curves, compared with bovine pancreatic aprotinin (Aprotinin Novo)” value on plasmin was “indistinguishable”. Besides, the “trypsin inhibition in terms of titration curves, compared with bovine pancreatic aprotinin (Aprotinin Novo)” value in the test on trypsin [1] is “indistinguishable”.
Glu-Leu-aprotinin(1-58): in the test with trypsin [2], the “specific (inhibitory) activity against trypsin compared with native / bovine pancreatic aprotinin” value is listed as “identical within the experimental error”. Further, at plasmin, the “plasmin inhibition in terms of titration curves, compared with bovine pancreatic aprotinin (Aprotinin Novo)” value is recorded as “indistinguishable”. For the same substance, the “trypsin inhibition in terms of titration curves, compared with bovine pancreatic aprotinin (Aprotinin Novo)” value with trypsin [1] is “indistinguishable”.
In the case of aprotinin(1-58), the “specific (inhibitory) activity against trypsin compared with native / bovine pancreatic aprotinin” value in the test on trypsin [2] was “indistinguishable”.
